Measurements taken from article PMC4205289, “Triptolide inhibits human immunodeficiency virus type 1 replication by promoting proteasomal degradation of Tat protein” (Retrovirology, 2014).
Read-outs that look alike come from different tables or passages of the source.

Key:
FLAG-Tat = system: T1, FLAG-Tat; test: Proteasome inhibition rescue of Tat expression, Western blot, HeLa cells; assay type: cell-based, HIV-1 NL4-3; settings: 5 nM triptolide, without MG132
T1 construct: expressed in transfected cells; host or cells: HeLa
Procedure: Figure 6 Triptolide reduces Tat protein stability by enhancing proteasomal degradation of Tat. (A) The effect of triptolide on Tat mRNA levels. HeLa cells were transfected with pEF1-Tat in the presence of increasing concentrations of triptolide. Cells were harvested 48 h post-transfection. The steady-state mRNA levels of Tat and GAPDH were examined using semi-quantitative reverse transcription PCR analysis. RT, reverse transcriptase. (B) The effect of triptolide on Tat protein degradation. HeLa cells were transfected with pEF1-FLAG-Tat in the presence of 5 nM triptolide or vehicle (DMSO). At 28 h post-transfection, cells were treated with 20 μg/mL of CHX to arrest protein synthesis. At 0, 1, 2, 3 h post-treatment, cells were harvested to determine protein expression levels using Western blot analysis. (C) The band intensities of FLAG-Tat in panel B were measured, and their natural log values were plotted as a function of time. Results were presented as the mean plus the standard deviations (n = 3). (D) Proteasome inhibition restores Tat protein expression. HeLa cells were transfected with pEF1-FLAG-Tat in the presence or absence of 5 nM triptolide. At 48 h post-transfection, cells were treated with 20 μM of MG132, and cultured for an additional 3 h before harvest. Protein expression levels were determined by Western blot analysis. TEXT PRINTED IN THE PICTURE: (C) DMSO: Half-lives: 2.0 h | (C) Triptolide: Half-lives: 0.4 h
Cells were washed with phosphate buffered saline (PBS) and lysed with radio immunoprecipitation assay lysis buffer supplemented with complete mini protease inhibitor cocktail (Roche) at 4°C for 1 h. Proteins from cell lysates were separated by SDS-PAGE and transferred to polyvinylidene difluoride membranes. After overnight incubation with primary antibodies at 4°C, each blot was probed with horseradish peroxidase-conjugated secondary antibody. Immunoreactive signals were detected with an enhanced chemiluminescence substrate (Thermo Scientific) using an AlphaEaseH FC Imaging System (Alpha Innotech Corporation).

HIV-1 NL4-3 = test: PBMC antiviral assay, p24 ELISA; assay type: cell-based; settings: for EC50: Human immunodeficiency virus 1, NL43, PBMC, 144 h, p24, day 6 post-infection; for selectivity ratio at 6 days: human, read-out: SI (selective index, CC50/EC50)
Procedure: In the antiviral assay using PBMCs, determination of the anti-HIV-1 activity of a particular compound was based on the inhibition of HIV-1 capsid protein (p24) production. After isolation, PBMCs were stimulated with phytohemagglutinin (2 μg/ml, Sigma-Aldrich) and interleukin-2 (20 U/mL, Sigma-Aldrich) in RPMI 1640 complete medium for three days and were then maintained with interleukin-2 during viral infection. PBMCs were infected with HIV-1 NL4-3 (MOI = 0.01). After viral adsorption for 2 h, the cells were washed thoroughly with culture medium to remove unabsorbed viral particles. The infected cells (2 × 10^5 cells/well) were cultured in 96-well plates in the presence of or absence of the test compound. At two, four, six, and eight days post-infection, half of the culture supernatant was collected and replaced with fresh medium containing the test compounds. The level of viral replication was determined with an HIV-1 p24 antigen capture enzyme-linked immunosorbent assay (ELISA).

HIV-1-Luc = test: microbe, parasite or virus in culture; assay type: cell-based
Procedure: In the antiviral assay with the HIV-1 reporter virus, Jurkat cells were seeded at a density of 2 × 10^4 cells per well in 96-well tissue culture plates and infected with HIV-1-Luc at an MOI of 0.5 in the presence or absence of the test compounds. At 48 h post-infection, luciferase activity in the cells was determined and EC50 values were calculated as described above.

[1] = system: HIV-1 molecular clone pNL4-3.Luc.R-E-; test: Transient gene expression assay, pNL4-3.Luc.R-E- transfected into Jurkat cells; assay type: cell-based; settings: 24 h, 118-D-24 50 μM, flavopiridol 20 nM, triptolide 0.2 ~ 5 nM
Procedure: Figure 3 Triptolide inhibits HIV-1 transcription. (A) Time-of-addition analysis. TZM-bl cells were infected with HIV-1 (MOI = 0.5, strain NL4-3), and the virus inoculum was removed after 1 h of absorption. Test compounds (dextran sulfate at 10 μg/mL, zidovudine at 1 μM and triptolide at 5 nM) were added at the indicated time points after infection. Reporter signal was monitored at 48 h post-infection as a measure of viral replication. (B) The effect of triptolide on HIV-1 proviral DNA formation. Jurkat cells were infected with HIV-1 (MOI = 0.5, strain NL4-3) in the presence of the test compounds (INI 118-D-24, 50 μM; flavopiridol, 20 nM; and triptolide, 5 nM). Proviral DNA synthesis was determined by nested PCR analysis at 12 h post-infection. (C) The effect of triptolide on HIV-1 mRNA synthesis. Jurkat cells were infected with HIV-1(MOI = 0.5, strain NL4-3) in the presence of the test compounds (INI 118-D-24, 50 μM; flavopiridol, 20 nM; triptolide, 5 nM). Viral mRNA (the Gag region) content was determined by reverse-transcription PCR analysis 12 h post-infection. (D) Inhibition of luciferase expression encoded in pNL4-3.Luc.R-E- by tiptolide. […]
To further confirm that triptolide interferes with HIV-1 transcription, a transient gene expression assay was performed. […] At 24 h after transfection, viral gene transcription (indicated by luciferase activity) was determined. […]

CC(C)[C@]12O[C@H]1[C@@H]1O[C@]13[C@]1(O[C@H]1C[C@H]1C4=C(CC[C@@]13C)C(=O)OC4)[C@@H]2O [triptolide]
Tat protein expression (FLAG-Tat): reduced to undetectable level | EC50 (HIV-1 NL4-3; HIV-1 NL4-3, PBMC donor A): 1.1 nM | EC50 (HIV-1 NL4-3; HIV-1 NL4-3, PBMC donor B): 0.9 nM | EC50 (HIV-1 NL4-3; HIV-1 NL4-3, PBMC donor C): 1.3 nM | selectivity ratio at 6 days (HIV-1 NL4-3; HIV-1 NL4-3, PBMC donor A): 11.5 | selectivity ratio at 6 days (HIV-1 NL4-3; HIV-1 NL4-3, PBMC donor B): 17 | selectivity ratio at 6 days (HIV-1 NL4-3; HIV-1 NL4-3, PBMC donor C): 8.6 | EC50 (HIV-1-Luc; Human immunodeficiency virus 1, Jurkat, 48 h): 0.45 nM | selectivity ratio at 48 h (HIV-1-Luc; human, HIV-1-Luc, Jurkat, read-out: SI (selective index, CC50/EC50)): 30.9 | effect on luciferase expression from transfected pNL4-3.Luc.R-E- [1]: inhibited reporter expression in a dose-dependent manner
